What was measured:
[1] = biological target: T1, IL-17 (Homo sapiens, UniProt Q16552); assay: Free IL-17 ELISA: capture antibody of DuoSet ELISA kit DY317 paired with mAb4538 as detection agent, IL-17 titration with 10 μM SM modulator; format: binding; conditions: capture antibody of DuoSet ELISA kit DY317, detection agent mAb4538 500 ng/ml, FIGS. 2A-2F
T1 construct: serial dilutions of recombinant IL-17 were prepared in diluent
Protocol: Two-fold and 8-point serial dilutions of recombinant IL-17 were prepared in diluent starting from 1 ng/ml, in duplicate. For testing differentiating property on SM modulators, IL-17 calibration samples were prepared in the presence of 10 μM SM modulators or vehicle control containing 0.1% DMSO. IL-17 samples were incubated for 1 hour at 37° C.
(§1) High binding 96-well plates were coated with 100 μL/well of 4 μg/ml capture antibody in PBS overnight at room temperature. Coated plates were washed 6×400 μL/well on plate washer (Zoom HT Microplate Washer) and blocked with 300 μL/well blocker (1% BSA in PBS) at room temperature for 2.5 hours followed by 6×400 μL/well on plate washer.
Samples were prepared by incubating titrated IL-17 with SM modulators at final concentration of 10 μM. IL-17 levels were measured in ELISA assay by adding 95 μL/well samples to the capture antibody coated plates. Plates were kept at room temperature for 30 minutes and then 5 μL/well of detecting agent were added to a final of 500 ng/mL, kept at room temperature for another 30 minutes, followed by washing 6×400 μL/well on plate washer. Development of color for measurement was performed by adding streptavidin conjugated horseradish peroxidase at 100 μL/well and incubated for 20 minutes at room temperature in the dark, followed by 6×400 μL/well on plate washer, and then addition of 100 μL/well pf substrate solution, incubated for 20 minutes at room temperature in the dark. Reaction was then stopped by addition of 50 μL/well of stop solution and plates were measured in plate reader at 450-540 nm.
(§2) Optical density (OD) readout from plate reader (Molecular Devices Spectra Max 340fPC) were analyzed with Softmax Pro6.3 and GraphPad Prism, and plotted as dose response curve of OD values vs IL-17 concentrations.

[2] = biological target: T2, human IL-17 (interleukin 17A), recombinant, free (not bound to a small molecule modulator) (human, UniProt Q16552 24-155, limits assumed); assay: sandwich ELISA: plate coated with capture antibody of DuoSet DY317, IL-17A titrated in 0.1% DMSO vehicle, mAb4538 at 500 ng/mL as detection agent, streptavidin-HRP readout
T2 construct: Recombinant IL-17 used as calibrator in the sandwich ELISAs; also called IL-17A; free IL-17
T2 sequence (Q16552 24-155 limits assumed): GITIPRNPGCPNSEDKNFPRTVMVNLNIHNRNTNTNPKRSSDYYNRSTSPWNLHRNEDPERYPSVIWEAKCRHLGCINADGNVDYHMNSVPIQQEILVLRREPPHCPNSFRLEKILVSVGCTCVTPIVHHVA
Protocol: as §1
Samples were prepared by incubating titrated IL-17 with SM modulators at final concentration of 10 μM. IL-17 levels were measured in ELISA assay by adding 95 μL/well samples to the capture antibody coated plates. Plates were kept at room temperature for 30 minutes and then 5 μL/well of detecting agent were added to a final of 500 ng/mL, kept at room temperature for another 30 minutes, followed by washing 6×400 μL/well on plate washer. […] Reaction was then stopped by addition of 50 μL/well of stop solution and plates were measured in plate reader at 450-540 nm.
as §2

T1 sequence (Q16552 24-155): as the sequence (Q16552 24-155 limits assumed) above

binding result [2]	Molecule	detection of free IL-17 versus SM modulator-bound IL-17 (OD vs IL-17 concentration) [1]
–	C[C@H]1NC(=O)[C@@H](Cc2ccc(NC(=O)[C@H](Cc3ccccc3Cl)NC(=O)Cc3ccc(CO)cc3)cc2)NC(=O)CC2(CCCC2)CC(=O)NCCCCCNC1=O [Compound #4]	detection of free IL-17, but not modulator-bound IL-17
–	C[C@H]1NC(=O)[C@@H](Cc2ccc(NC(=O)[C@H](Cc3ccccc3Cl)NC(=O)Cc3ccc(F)cc3)cc2)NC(=O)CC2(CCCC2)CC(=O)N[C@H](C(=O)O)CCCCNC1=O [Compound #3]	detection of free IL-17, but not modulator-bound IL-17
–	O=C(CC1(CC(=O)N2CCCC2)CCCC1)NCCc1ccc(NC(=O)[C@H](Cc2ccccc2Cl)NC(=O)C(F)(F)c2ccccc2)cc1 [Compound #6]	detection of free IL-17, but not modulator-bound IL-17
–	NC(=O)CC[C@H]1NC(=O)[C@@H](Cc2ccc(NC(=O)[C@H](Cc3ccccc3Cl)NC(=O)Cc3ccc(F)cc3)cc2)NC(=O)CC2(CCCC2)CC(=O)NCCCCCNC1=O [Compound #2]	detection of free IL-17, but not modulator-bound IL-17
–	O=C1CNC(=O)[C@@H](Cc2ccc(NC(=O)[C@H](Cc3ccccc3Cl)NC(=O)Cc3ccccc3)cc2)NC(=O)CC2(CCCC2)CC(=O)NCCCCCN1 [Compound #5]	detection of free IL-17, but not modulator-bound IL-17
binds	mAb4538 (Janssen Biotech, Inc.) (antibody, human IgG1, lambda, V domains shown, also called human mAb4538 antibody) VH: QVQLQQSGPGLVKPSQTLSLTCAISGDSVSSSSAAWGWIRQSPSRGLEWLGRISYRSKWYNDYAVSVKSRITINPDTSKNQFSLQLNSVTPEDTAVYYCAREVDSMYYSYFDIWGQGTLVTVSS VL: EIVLTQSPATLSLSPGERATLSCRASQNVWAFYLAWYQQKPGQAPRLLIYGASNRATGIPARFSGSGSGTDFTLTISSLEPEDFAVYYCQQYRSTLSLTFGQGTKVEIKG	–

Source: patent US20220357341A1, “COMPOSITIONS AND METHODS FOR AN IL-17 TARGET ENGAGEMENT ASSAY WITH SMALL MOLECULE MODULATORS” (Janssen Pharmaceutica NV, priority 2019, published 2022)
